Experiments:
[1] = Measurement of LogP values by HPLC on reversed phase columns (EEC directive 79/831 Annex V.A8); format: physicochemical; details: method [a]: LC-UV, acidic range, 0.1% formic acid in water and acetonitrile; compounds of formula (I-1), Table 1
Procedure: Calibration was done with straight-chain alkan2-ones (with 3 to 16 carbon atoms) with known LogP values (measurement of LogP values using retention times with linear interpolation between successive alkanones). Lambda-max-values were determined using UV-spectra from 200 nm to 400 nm and the peak values of the chromatographic signals

Botrytis cinerea = experiment: In vivo preventive test on Botrytis cinerea (grey mould); details: 500 ppm of active ingredient, preventive spray on gherkin or cabbage, evaluated 4 to 5 days after inoculation, read-out: efficacy
Procedure: (§1) The active ingredients were made soluble and homogenized in a mixture of Dimethyl sulfoxide/Acetone//Tween® 80 and then diluted in water to the desired concentration. The young plants of gherkin or cabbage were treated by spraying the active ingredient prepared as described above. Control plants were treated only with an aqueous solution of Acetone/Dimethyl sulfoxide/Tween® 80. After 24 hours, the plants were contaminated by spraying the leaves with an aqueous suspension of Botrytis cinerea spores.

Pyrenophora teres = experiment: In vivo preventive test on Pyrenophora teres (net blotch on barley); details: 240 h, 500 ppm of active ingredient, preventive spray on barley, evaluated 10 days after inoculation, read-out: efficacy
Procedure: as §1, with “barley” for “gherkin or cabbage”, “Pyrenophora teres” for “Botrytis cinerea”

Sphaerotheca fuliginea = experiment: In vivo preventive test on Sphaerotheca fuliginea (powdery mildew on cucurbits); details: Podosphaera fuliginea, 192 h; 500 ppm of active ingredient; preventive spray on gherkin; evaluated 8 days after inoculation; read-out: efficacy
Procedure: as §1, with “gherkin” for “gherkin or cabbage”, “Sphaerotheca fuliginea” for “Botrytis cinerea”

[2] = tested on: Colletotrichum lindemuthianum; experiment: In vivo preventive test on Colletotrichum lindemuthianum (leaf spot on bean); details: 168 h, 500 ppm of active ingredient, preventive spray on bean, evaluated 7 days after inoculation, read-out: efficacy
Procedure: as §1, with “bean” for “gherkin or cabbage”, “Colletotrichum lindemuthianum” for “Botrytis cinerea”

Alternaria alternata = Alternaria alternata in vitro cell test; format: cell-based; details: 120 h, 20 ppm of active ingredient, liquid culture, 5 days incubation, read-out: efficacy (inhibition of fungal growth)
Procedure: (§2) • Solvent: DMSO • Culture medium: 14.6 g anhydrous D-glucose (VWR), 7.1 g Mycological Peptone (Oxoid), 1.4 g granulated Yeast Extract (Merck), QSP 1 liter • Inoculum: spores suspension Fungicides were solubilized in DMSO and the solution used to prepare the required range of concentrations. […] A spore suspension of A. alternata was prepared and diluted to the desired spore density. Fungicides were evaluated for their ability to inhibit spore germination and mycelium growth in liquid culture assay. The compounds were added in the desired concentration to the culture medium with spores. After 5 days incubation, fungi-toxicity of compounds was determined by spectrometric measurement of mycelium growth. Inhibition of fungal growth was determined by comparing the absorbance values in wells containing the fungicides with the absorbance in control wells without fungicides.

Pyricularia Oryzae = experiment: microbe, parasite or virus in culture; format: cell-based; details: 120 h, read-out: efficacy (inhibition of fungal growth)
[3] = tested on: Colletotrichum lindemuthianum; experiment: Colletotrichum lindemuthianum in vitro cell test; format: cell-based; details: 144 h, 20 ppm of active ingredient, liquid culture, 6 days incubation, read-out: efficacy (inhibition of fungal growth)
Procedure: as §2, with “of C. lindemuthianum” for “of A. alternata”, “inhibit spores” for “inhibit spore”, “After 6” for “After 5”

Septoria tritici = Septoria tritici in vitro cell test; format: cell-based; details: Zymoseptoria tritici, 168 h; 20 ppm of active ingredient; liquid culture, 7 days incubation; read-out: efficacy (inhibition of fungal growth)
Procedure: • Solvent: DMSO • Culture medium: 1 g KH2PO4 (VWR), 1 g K2HPO4 (VWR), 0.5 g Urea (VWR), 3 g KNO3 (Prolabo), 10 g saccharose (VWR), 0.5 g MgSO4, 7H2O (Sigma), 0.07 g CaCl2, 2H2O (Prolabo), 0.2 mg MnSO4, H2O (Sigma), 0.6 mg CuSO4, 5H2O (Sigma), 7.9 mg ZnSO4, 7H2O (Sigma), 0.1 mg H3BO3 (Merck), 0.14 mg NaMoO4, 2H2O (Sigma), 2 mg thiamine (Sigma), 0.1 mg biotine (VWR), 4 mg FeSO4, 7H2O (Sigma), QSP 1 liter • Inoculum: spore suspension Fungicides were solubilized in DMSO and the solution used to prepare the required range of concentrations. […] A spore suspension of S. tritici was prepared and diluted to the desired spore density. Fungicides were evaluated for their ability to inhibit spore germination and mycelium growth in liquid culture assay. The compounds were added in the desired concentration to the culture medium with spores. […] Inhibition of fungal growth was determined by comparing the absorbance values in wells containing the fungicides with the absorbance in control wells without fungicides.

Alternaria brassicae = experiment: In vivo preventive test on Alternaria brassicae (leaf spot on radish or cabbage); details: 144 h, 500 ppm of active ingredient, preventive spray on radish or cabbage, evaluated 6 days after inoculation, read-out: efficacy
Procedure: as §1, with “radish” for “gherkin”, “Alternaria brassicae” for “Botrytis cinerea”

Fusarium culmorum = Fusarium culmorum in vitro cell test; format: cell-based; details: 96 h, 20 ppm of active ingredient, liquid culture, 4 days incubation, read-out: efficacy (inhibition of fungal growth)
Procedure: • Solvent: DMSO • Culture medium: 14.6 g anhydrous D-glucose (VWR), 7.1 g Mycological Peptone (Oxoid), 1.4 g granulated Yeast Extract (Merck), QSP 1 liter • Inoculum: spore suspension • Fungicides were solubilized in DMSO and the solution used to prepare the required range of concentrations. The final concentration of DMSO used in the assay was ≤1%.
A spore suspension of F. culmorum was prepared and diluted to the desired spore density.
Fungicides were evaluated for their ability to inhibit spore germination and mycelium growth in liquid culture assay. The compounds were added in the desired concentration to the culture medium with spores. After 4 days incubation, fungi-toxicity of compounds was determined by spectrometric measurement of mycelium growth. Inhibition of fungal growth was determined by comparing the absorbance values in wells containing the fungicides with the absorbance in control wells without fungicides.

Row | SMILES | chromatographic logP [1] | pest or weed control at 500 ppm (Botrytis cinerea) [%] | pest or weed control at 500 ppm (Pyrenophora teres) [%] | pest or weed control at 500 ppm (Sphaerotheca fuliginea) [%] | pest or weed control at 500 ppm [2] [%] | inhibition at 20 ppm (Alternaria alternata) [%] | inhibition at 20 ppm (Pyricularia Oryzae) [%] | inhibition at 20 ppm [3] [%] | inhibition at 20 ppm (Septoria tritici) [%] | pest or weed control at 500 ppm (Alternaria brassicae) [%] | inhibition at 20 ppm (Fusarium culmorum) [%]
1 | Cc1cc(C)cc(CC2CON=C(c3cc(C)nnc3Oc3cccc(C)c3F)N2)c1 (racemic) [Compound I-008, (5RS)-5-(3,5-dimethylbenzyl)-3-[3-(2-fluoro-3-methylphenoxy)-6-methylpyridazin-4-yl]-5,6-dihydro-4H-1,2,4-oxadiazine] | 3.85 | 90 to 100 | 90 to 100 | 90 to 100 | 90 to 100 | 90 to 100 | 90 to 100 | 90 to 100 | 90 to 100 | 90 to 100 | –
2 | Cc1cc(C)cc(CC2CON=C(c3cc(C)nnc3Oc3cccc(Cl)c3)N2)c1 (racemic) [Compound I-009, (5RS)-3-[3-(3-chlorophenoxy)-6-methylpyridazin-4-yl]-5-(3,5-dimethylbenzyl)-5,6-dihydro-4H-1,2,4-oxadiazine] | 3.87 | – | – | – | – | 90 to 100 | 90 to 100 | 90 to 100 | 90 to 100 | – | 90 to 100
3 | Cc1ccc(C)c(CC2CON=C(c3cc(C)nnc3Oc3cccc(C)c3F)N2)c1 (racemic) [Compound I-013, (5RS)-5-(2,5-dimethylbenzyl)-3-[3-(2-fluoro-3-methylphenoxy)-6-methylpyridazin-4-yl]-5,6-dihydro-4H-1,2,4-oxadiazine] | 3.69 | 90 to 100 | 80 to 89 | 90 to 100 | 90 to 100 | 90 to 100 | 80 to 89 | 90 to 100 | 90 to 100 | 90 to 100 | –
4 | Cc1ccc(CC2CON=C(c3cc(C)nnc3Oc3cccc(C4(F)CC4)c3)N2)c(C)c1 (racemic) [Compound I-015, (5RS)-5-(2,4-dimethylbenzyl)-3-{3-[3-(1-fluorocyclopropyl)phenoxy]-6-methylpyridazin-4-yl}-5,6-dihydro-4H-1,2,4-oxadiazine] | 3.78 | 90 to 100 | 90 to 100 | 90 to 100 | 90 to 100 | 90 to 100 | 90 to 100 | 90 to 100 | – | 90 to 100 | 80 to 89
5 | C=C(OCC)c1cc(C2=NOCC(Cc3ccc(Cl)cc3Cl)N2)c(Oc2cccc(C3CC3)c2)nn1 (racemic) [Compound I-019, (5RS)-3-[3-(3-cyclopropylphenoxy)-6-(1-ethoxyvinyl)pyridazin-4-yl]-5-(2,4-dichlorobenzyl)-5,6-dihydro-4H-1,2,4-oxadiazine] | 5.19 | 90 to 100 | 90 to 100 | 90 to 100 | 90 to 100 | 90 to 100 | 90 to 100 | 90 to 100 | – | 90 to 100 | 70 to 79
6 | C=C(OCC)c1cc(C2=NOCC(Cc3ccc(Cl)cc3Cl)N2)c(Oc2cccc(C3CC3)c2F)nn1 (racemic) [Compound I-020, (5RS)-3-[3-(3-cyclopropyl-2-fluorophenoxy)-6-(1-ethoxyvinyl)pyridazin-4-yl]-5-(2,4-dichlorobenzyl)-5,6-dihydro-4H-1,2,4-oxadiazine] | 5.41 | 90 to 100 | 90 to 100 | 90 to 100 | 90 to 100 | 90 to 100 | 90 to 100 | 90 to 100 | 90 to 100 | 90 to 100 | –
7 | Cc1ccc(CC2CON=C(c3cc(C(C)O)nnc3Oc3cccc(C4CC4)c3)N2)c(C)c1 (stereo not shown) [Compound I-016, 1-{6-(3-cyclopropylphenoxy)-5-[5-(2,4-dimethylbenzyl)-5,6-dihydro-4H-1,2,4-oxadiazin-3-yl]pyridazin-3-yl}ethanol] | 3.55 | 90 to 100 | 80 to 89 | 90 to 100 | 90 to 100 | 90 to 100 | 90 to 100 | 90 to 100 | 90 to 100 | 90 to 100 | –
8 | CC(O)c1cc(C2=NOCC(Cc3ccc(Cl)cc3Cl)N2)c(Oc2cccc(C3CC3)c2F)nn1 (stereo not shown) [Compound I-023, 1-{6-(3-cyclopropyl-2-fluorophenoxy)-5-[5-(2,4-dichlorobenzyl)-5,6-dihydro-4H-1,2,4-oxadiazin-3-yl]pyridazin-3-yl}ethanol] | 3.87 | 90 to 100 | 90 to 100 | 90 to 100 | 90 to 100 | 90 to 100 | 90 to 100 | 90 to 100 | – | 90 to 100 | 90 to 100

Source: patent US12543738B2 (Bayer Aktiengesellschaft, priority 2020, dated 2026)
